Measured values from the supplement of paper PMC11451515.

Tested on: SEM cells
Experiment: cell viability relative to DMSO control; higher = less cytotoxic
Conditions: 48 h
Outline: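 Viability is expressed as a percentage of DMSO wells within each plate, and cell-free wells serve as background. Seeding densities in the 1536-well plates (5 μl) were 500 cells/well for NOMO1 or SEM leukemia cells and 1000 cells/well for P12-Ichikawa. Each line was adapted for at least four passages in each medium. Library compounds in DMSO were pin-dosed at 47 μM to 0.79 nM (11 points, threefold), and CellTiter-Glo One luminescence was read after 48 h at 37°C.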

[1] = HPLM + 10% dialyzed FBS, 0.000781 µM
[2] = HPLM + 10% dialyzed FBS, 0.00234 µM
[3] = HPLM + 10% dialyzed FBS, 0.00702 µM
[4] = HPLM + 10% dialyzed FBS, 0.0211 µM
[5] = HPLM + 10% dialyzed FBS, 0.0632 µM
[6] = HPLM + 10% dialyzed FBS, 0.19 µM
[7] = HPLM + 10% dialyzed FBS, 0.569 µM
[8] = HPLM + 10% dialyzed FBS, 1.71 µM
[9] = HPLM + 10% dialyzed FBS, 5.12 µM
[10] = HPLM + 10% dialyzed FBS, 15.4 µM
[11] = HPLM + 10% dialyzed FBS, 46.1 µM
[12] = RPMI 5 mM glucose + 10% FBS, 0.000781 µM
[13] = RPMI 5 mM glucose + 10% FBS, 0.00234 µM
[14] = RPMI 5 mM glucose + 10% FBS, 0.00702 µM
[15] = RPMI 5 mM glucose + 10% FBS, 0.0211 µM
[16] = RPMI 5 mM glucose + 10% FBS, 0.0632 µM
[17] = RPMI 5 mM glucose + 10% FBS, 0.19 µM
[18] = RPMI 5 mM glucose + 10% FBS, 0.569 µM
[19] = RPMI 5 mM glucose + 10% FBS, 1.71 µM
[20] = RPMI 5 mM glucose + 10% FBS, 5.12 µM
[21] = RPMI 5 mM glucose + 10% FBS, 15.4 µM
[22] = RPMI 5 mM glucose + 10% FBS, 46.1 µM
[23] = RPMI 5 mM glucose + 10% dialyzed FBS, 0.000781 µM
[24] = RPMI 5 mM glucose + 10% dialyzed FBS, 0.00234 µM
[25] = RPMI 5 mM glucose + 10% dialyzed FBS, 0.00702 µM
[26] = RPMI 5 mM glucose + 10% dialyzed FBS, 0.0211 µM
[27] = RPMI 5 mM glucose + 10% dialyzed FBS, 0.0632 µM
[28] = RPMI 5 mM glucose + 10% dialyzed FBS, 0.19 µM
[29] = RPMI 5 mM glucose + 10% dialyzed FBS, 0.569 µM
[30] = RPMI 5 mM glucose + 10% dialyzed FBS, 1.71 µM
[31] = RPMI 5 mM glucose + 10% dialyzed FBS, 5.12 µM
[32] = RPMI 5 mM glucose + 10% dialyzed FBS, 15.4 µM
[33] = RPMI 5 mM glucose + 10% dialyzed FBS, 46.1 µM

Row | SMILES | cell viability [1] [%] | cell viability [2] [%] | cell viability [3] [%] | cell viability [4] [%] | cell viability [5] [%] | cell viability [6] [%] | cell viability [7] [%] | cell viability [8] [%] | cell viability [9] [%] | cell viability [10] [%] | cell viability [11] [%] | cell viability [12] [%] | cell viability [13] [%] | cell viability [14] [%] | cell viability [15] [%] | cell viability [16] [%] | cell viability [17] [%] | cell viability [18] [%] | cell viability [19] [%] | cell viability [20] [%] | cell viability [21] [%] | cell viability [22] [%] | cell viability [23] [%] | cell viability [24] [%] | cell viability [25] [%] | cell viability [26] [%] | cell viability [27] [%] | cell viability [28] [%] | cell viability [29] [%] | cell viability [30] [%] | cell viability [31] [%] | cell viability [32] [%] | cell viability [33] [%]
1 | COc1cc2c(cc1O)CCC1C2CC[C@@]2(C)C1CC[C@@H]2O (some centres undefined) | 88.7 | 114 | 98.4 | 25.9 | 108 | 113 | 95.8 | 73.2 | 40.7 | 31.4 | 26.2 | 120 | 108 | 129 | 22 | 124 | 125 | 107 | 84.2 | 49.1 | 23.5 | 21.7 | 116 | 118 | 126 | 24.6 | 118 | 123 | 108 | 88.7 | 40.2 | 26.5 | 28.2
2 | O=C(Nc1ccccc1)Nc1ccc(-c2ccc(C(=O)[C@@H]3CCC[C@H]3C(=O)O)cc2)cc1 | 101 | 111 | 101 | 110 | 110 | 103 | 99.8 | 107 | 108 | 106 | 105 | 102 | 102 | 111 | 108 | 109 | 99.5 | 114 | 97.6 | 94.6 | 91.2 | 114 | 109 | 103 | 107 | 124 | 104 | 99.7 | 101 | 95.4 | 113 | 107 | 123
3 | C/C=C(\C)C(=O)N[C@@H](c1ccccc1)[C@@H](O)C(=O)O[C@H]1C[C@@]2(O)[C@@H](OC(=O)c3ccccc3)[C@@H]3[C@]4(OC(C)=O)CO[C@@H]4C[C@H](O)[C@@]3(C)C(=O)[C@H](OC(C)=O)C(=C1C)C2(C)C | 34 | 24.3 | 33.2 | 20.6 | 19.2 | 19.8 | 14.9 | 19.6 | 19.9 | 15.9 | 20.5 | 45.4 | 22.3 | 23.3 | 18.4 | 14.1 | 15.5 | 15.4 | 14.9 | 14.3 | 12.5 | 12.2 | 32.4 | 26.1 | 25 | 17.5 | 16.2 | 13.6 | 13.1 | 14.7 | 16.6 | 15.5 | 16.2
4 | c1coc(CNc2ncnc3nc[nH]c23)c1 | 112 | 101 | 112 | 103 | 116 | 118 | 123 | 110 | 130 | 127 | 103 | 110 | 120 | 116 | 121 | 124 | 110 | 119 | 120 | 143 | 119 | 105 | 105 | 115 | 106 | 114 | 111 | 114 | 97.4 | 109 | 115 | 119 | 96.1
5 | Clc1ccc(C(c2ccc(Cl)cc2)[n+]2ccn(CC(OCc3ccc(Cl)cc3Cl)c3ccc(Cl)cc3Cl)c2)cc1 (centres undefined) | 108 | 121 | 107 | 105 | 117 | 112 | 108 | 117 | 117 | 61 | 5.22 | 109 | 111 | 117 | 120 | 132 | 127 | 124 | 111 | 106 | 37.7 | 1.63 | 112 | 117 | 118 | 109 | 108 | 123 | 124 | 115 | 125 | 83.3 | 3.06
6 | O=c1oc2cc(O)ccc2s1 | 85.6 | 110 | 98.9 | 95.4 | 109 | 105 | 120 | 93.9 | 111 | 105 | 37.9 | 91.8 | 106 | 82.9 | 110 | 103 | 98.6 | 112 | 118 | 109 | 77.6 | 24.8 | 97.4 | 119 | 99.3 | 109 | 121 | 88.3 | 112 | 106 | 129 | 90.3 | 37.6
7 | NCCOc1cc(C(=O)Nc2cc(OCCN)c3ccccc3n2)nc(C(=O)Nc2cc(OCCN)c3ccccc3n2)c1 | 47.6 | 56.1 | 36.1 | 23.8 | 19.4 | 22.9 | 22.8 | 21.5 | 22.2 | 31.1 | 46.3 | 23.9 | 19.8 | 23.7 | 21.1 | 22.1 | 23.6 | 23.2 | 19.3 | 27.5 | 32.6 | 61.1 | 67.3 | 58.4 | 42.6 | 25.6 | 22.9 | 20 | 22.9 | 25.4 | 21.7 | 38.2 | 59.5
8 | CCOc1ccccc1N/N=C1/C(=O)N(c2nc(-c3ccccc3)cs2)N=C1C | 124 | 114 | 93 | 122 | 105 | 99.2 | 100 | 86.4 | 45.9 | 8.56 | 3.58 | 103 | 114 | 102 | 116 | 144 | 110 | 111 | 70.7 | 70 | 9.65 | 2.74 | 114 | 106 | 101 | 115 | 106 | 97.4 | 81.7 | 77.1 | 59.4 | 9.71 | 3.01
9 | COCC(=O)NC/C=C/c1ccc2ncnc(Nc3ccc(Oc4ccc(C)nc4)c(C)c3)c2c1 | 87.2 | 87.7 | 87.1 | 96.4 | 92.4 | 92.3 | 108 | 90.3 | 82.2 | 89.1 | 66.5 | 102 | 105 | 124 | 95.2 | 105 | 98.8 | 103 | 97.8 | 93 | 99.9 | 34.6 | 78.8 | 82.9 | 93.6 | 95.6 | 101 | 86.8 | 94.2 | 91 | 71.6 | 88 | 49
10 | O=C(O)c1cccnc1 | 111 | 117 | 109 | 118 | 105 | 106 | 98.2 | 37.5 | 14.4 | 9.12 | 6.43 |  |  |  |  |  |  |  |  |  |  |  |  |  |  |  |  |  |  |  |  |  | 
11 | N#Cc1cc(NC(=O)Nc2nnc(-c3ccncc3)s2)ccc1-c1cn[nH]c1 |  |  |  |  |  |  |  |  |  |  |  | 96 | 111 | 93 | 85.1 | 96.4 | 106 | 107 | 105 | 87.9 | 93.1 | 89.2 | 107 | 120 | 128 | 107 | 98.6 | 129 | 113 | 122 | 127 | 93 | 108
12 | CC[C@H]1OC(=O)[C@H](C)[C@@H](O[C@H]2C[C@@](C)(OC)[C@@H](O)[C@H](C)O2)[C@H](C)[C@@H](O[C@@H]2O[C@H](C)C[C@H](N(C)C)[C@H]2O)[C@](C)(O)C[C@@H](C)/C(=N\OCOCCOC)[C@H](C)[C@@H](O)[C@]1(C)O | 95.3 | 89 | 95.1 | 95.3 | 105 | 83.1 | 76.7 | 93.6 | 85.2 | 80.5 | 73.4 | 107 | 98.1 | 109 | 108 | 111 | 87.4 | 94.6 | 97.5 | 96.9 | 87.9 | 95.6 | 103 | 104 | 107 | 116 | 108 | 96.3 | 92.9 | 103 | 100 | 93.8 | 71.7
13 | COc1cccc(N(C)C(=S)Oc2ccc3c(c2)CCCC3)n1 | 75.6 | 66.4 | 85.4 | 88.1 | 91.2 | 84 | 95.4 | 82.5 | 76.5 | 82.8 | 65.6 | 75 | 83 | 86.7 | 94 | 104 | 96.2 | 93.1 | 97 | 99.3 | 97.9 | 92.8 | 96.7 | 95.1 | 90.2 | 93.3 | 91.3 | 100 | 101 | 97.5 | 87.8 | 98.5 | 84.6
14 | CCOc1cc(C(=O)Nc2ccc(Cl)c(-c3nc4ccccc4[nH]3)c2)cc(OCC)c1OCC | 70.1 | 76 | 91.4 | 92.8 | 92 | 87.5 | 89.3 | 91 | 85.2 | 17.4 | 62.4 | 76.8 | 74.7 | 93.6 | 92.7 | 94.2 | 94.4 | 109 | 94.5 | 93.5 | 9.91 | 48.1 | 73.9 | 77.1 | 91.8 | 95.4 | 85.6 | 93.5 | 92.6 | 86.6 | 77.7 | 16.8 | 46.1
